Molecular target: T1, human recombinant full-length fatty acid synthase (FASN) (Homo sapiens, UniProt P49327)
T1 construct: human recombinant full-length fatty acid synthase; made in house; host or cells: SF9 cells
Test: Biochemical activity testing of human fatty acid synthase FASN (NADPH fluorescence intensity assay)
Conditions: NADPH fluorescence decrease (ex 340 nm / em 460 nm), 30 minutes at room temperature, read-out: IC50 FASN (enzyme assay)
Excerpt: aq (aqueous), h (hour), g (gram), L (liter), mg (milligram), MHz (Megahertz), (melting point), eq (equivalent), mL (milliliter), L (microliter), ACN (acetonitrile), AcOH (acetic acid), CDCl3 (deuterated chloroform), CD3OD (deuterated methanol), CH3CN (acetonitrile), c-hex (cyclohexane), DCC (dicyclohexyl carbodiimide), DCM (dichloromethane), DIC (diisopropyl carbodiimide), DIEA (diisopropylethyl-amine), DMF (dimethylformamide), DMSO (dimethylsulfoxide), DMSO-d6 (deuterated dimethylsulfoxide), EDC (1-(3-dimethyl-amino-propyl)-3-ethylcarbodiimide), ESI (Electro-spray ionization), EtOAc (ethyl acetate), Et2O (diethyl ether), EtOH (ethanol), HATU (dimethylamino-([1,2,3]triazolo[4,5-b]pyridin-3-yloxy)-methylene]-dimethylammonium hexafluorophosphate), HPLC (High Performance Liquid Chromatography), i-PrOH (2-propanol), K2CO3 (potassium carbonate), LC (Liquid Chromatography), MeOH (methanol), MgSO4 (magnesium sulfate), MS (mass spectrometry), MTBE (Methyl tert-butyl ether), NaHCO3 (sodium bicarbonate), NaBH4 (sodium borohydride), NMM (N-methyl morpholine), NMR (Nuclear Magnetic Resonance), PyBOP (benzotriazole-1-yl-oxy-trispyrrolidino-phosphonium hexafluorophosphate), RT (room temperature), Rt (retention time), SPE (solid phase extraction), TBTU (2-(1-H-benzotriazole-1-yl)-1,1,3,3-tetramethyluromium tetrafluoro borate), TEA (triethylamine), TFA (trifluoroacetic acid), THF (tetrahydrofuran), TLC (Thin Layer Chromatography), UV (Ultraviolet). Description of the In Vitro Assays Abbreviations: GST=Glutathione-S-transferase FRET=Fluorescence resonance energy transfer HTRF®=(homogenous time resolved fluorescence) HEPES=4-(2-hydroxyethyl)-1-piperazine ethanesulfonic acid buffer DTT=Dithiothreitol BSA=bovine serum albumin CHAPS=detergent; CHAPS=3[(3-cholamidopropyl)dimethylammonio]-1-propanesulfonate Biochemical Activity Testing of Human Fatty Acid Synthase FASN
Fatty acid synthase FASN is a multifunctional enzyme with seven catalytic activities thereby synthesising long chain fatty acids especially palmitoyl-CoA in the presence of co-factor NADPH starting from the substrates acetyl-CoA and malonyl-CoA. The reductive synthesis is realized by the oxidation of NADPH to NADP. Since NADPH has a high fluorescence intensity quantum yield compared to NADP with excitation at 340 nm and emission at 460 nm, the reaction can be monitored via the decrease in fluorescence intensity. The biochemical FASN activity testing was performed as 384 well two-time-point kinetic fluorescence intensity assay format in Greiner low volume medium binding 384-well black microtiter plates in a total assay volume of 8 μl and was used for high throughput screen. In each well 3 μl 40 nM human recombinant full-length fatty acid synthase (produced in-house in SF9 cells) were dispensed in the following assay buffer: 50 mM potassium phosphate buffer pH 7.0, 0.005% (w/v) BSA, 2 mM Glutathione, 0.02% Tween-20. Then 2 μl of 200 μM NADPH in assay buffer were added, followed by the addition of the test compounds in 10 dilution concentrations starting with 30 μM (final concentration) to get a final DMSO content of 1% (v/v). The mixture was incubated for at least 15 min at room temperature. After the pre-incubation the enzymatic reaction was started by the addition of 2 μl substrate solution (80 μM acetyl-CoA, 240 μM malonyl-CoA). A first fluorescence intensity measurement (time point one) was performed with an Envision multimode reader (Perkin Elmer LAS Germany GmbH) at excitation wavelength 340 nm (lamp mode) and emission wavelength 460 nm. The reaction was incubated for 30 minutes at room temperature. After this the fluorescence intensity was measured again in the Envision using the same parameters as described above (second time point measurement). The data were analysed by subtracting the first time point measurement value from the second time point measurement value (after the enzymatic reaction). The differences of the emission signals were determined. […]

T1 sequence (P49327 whole entry): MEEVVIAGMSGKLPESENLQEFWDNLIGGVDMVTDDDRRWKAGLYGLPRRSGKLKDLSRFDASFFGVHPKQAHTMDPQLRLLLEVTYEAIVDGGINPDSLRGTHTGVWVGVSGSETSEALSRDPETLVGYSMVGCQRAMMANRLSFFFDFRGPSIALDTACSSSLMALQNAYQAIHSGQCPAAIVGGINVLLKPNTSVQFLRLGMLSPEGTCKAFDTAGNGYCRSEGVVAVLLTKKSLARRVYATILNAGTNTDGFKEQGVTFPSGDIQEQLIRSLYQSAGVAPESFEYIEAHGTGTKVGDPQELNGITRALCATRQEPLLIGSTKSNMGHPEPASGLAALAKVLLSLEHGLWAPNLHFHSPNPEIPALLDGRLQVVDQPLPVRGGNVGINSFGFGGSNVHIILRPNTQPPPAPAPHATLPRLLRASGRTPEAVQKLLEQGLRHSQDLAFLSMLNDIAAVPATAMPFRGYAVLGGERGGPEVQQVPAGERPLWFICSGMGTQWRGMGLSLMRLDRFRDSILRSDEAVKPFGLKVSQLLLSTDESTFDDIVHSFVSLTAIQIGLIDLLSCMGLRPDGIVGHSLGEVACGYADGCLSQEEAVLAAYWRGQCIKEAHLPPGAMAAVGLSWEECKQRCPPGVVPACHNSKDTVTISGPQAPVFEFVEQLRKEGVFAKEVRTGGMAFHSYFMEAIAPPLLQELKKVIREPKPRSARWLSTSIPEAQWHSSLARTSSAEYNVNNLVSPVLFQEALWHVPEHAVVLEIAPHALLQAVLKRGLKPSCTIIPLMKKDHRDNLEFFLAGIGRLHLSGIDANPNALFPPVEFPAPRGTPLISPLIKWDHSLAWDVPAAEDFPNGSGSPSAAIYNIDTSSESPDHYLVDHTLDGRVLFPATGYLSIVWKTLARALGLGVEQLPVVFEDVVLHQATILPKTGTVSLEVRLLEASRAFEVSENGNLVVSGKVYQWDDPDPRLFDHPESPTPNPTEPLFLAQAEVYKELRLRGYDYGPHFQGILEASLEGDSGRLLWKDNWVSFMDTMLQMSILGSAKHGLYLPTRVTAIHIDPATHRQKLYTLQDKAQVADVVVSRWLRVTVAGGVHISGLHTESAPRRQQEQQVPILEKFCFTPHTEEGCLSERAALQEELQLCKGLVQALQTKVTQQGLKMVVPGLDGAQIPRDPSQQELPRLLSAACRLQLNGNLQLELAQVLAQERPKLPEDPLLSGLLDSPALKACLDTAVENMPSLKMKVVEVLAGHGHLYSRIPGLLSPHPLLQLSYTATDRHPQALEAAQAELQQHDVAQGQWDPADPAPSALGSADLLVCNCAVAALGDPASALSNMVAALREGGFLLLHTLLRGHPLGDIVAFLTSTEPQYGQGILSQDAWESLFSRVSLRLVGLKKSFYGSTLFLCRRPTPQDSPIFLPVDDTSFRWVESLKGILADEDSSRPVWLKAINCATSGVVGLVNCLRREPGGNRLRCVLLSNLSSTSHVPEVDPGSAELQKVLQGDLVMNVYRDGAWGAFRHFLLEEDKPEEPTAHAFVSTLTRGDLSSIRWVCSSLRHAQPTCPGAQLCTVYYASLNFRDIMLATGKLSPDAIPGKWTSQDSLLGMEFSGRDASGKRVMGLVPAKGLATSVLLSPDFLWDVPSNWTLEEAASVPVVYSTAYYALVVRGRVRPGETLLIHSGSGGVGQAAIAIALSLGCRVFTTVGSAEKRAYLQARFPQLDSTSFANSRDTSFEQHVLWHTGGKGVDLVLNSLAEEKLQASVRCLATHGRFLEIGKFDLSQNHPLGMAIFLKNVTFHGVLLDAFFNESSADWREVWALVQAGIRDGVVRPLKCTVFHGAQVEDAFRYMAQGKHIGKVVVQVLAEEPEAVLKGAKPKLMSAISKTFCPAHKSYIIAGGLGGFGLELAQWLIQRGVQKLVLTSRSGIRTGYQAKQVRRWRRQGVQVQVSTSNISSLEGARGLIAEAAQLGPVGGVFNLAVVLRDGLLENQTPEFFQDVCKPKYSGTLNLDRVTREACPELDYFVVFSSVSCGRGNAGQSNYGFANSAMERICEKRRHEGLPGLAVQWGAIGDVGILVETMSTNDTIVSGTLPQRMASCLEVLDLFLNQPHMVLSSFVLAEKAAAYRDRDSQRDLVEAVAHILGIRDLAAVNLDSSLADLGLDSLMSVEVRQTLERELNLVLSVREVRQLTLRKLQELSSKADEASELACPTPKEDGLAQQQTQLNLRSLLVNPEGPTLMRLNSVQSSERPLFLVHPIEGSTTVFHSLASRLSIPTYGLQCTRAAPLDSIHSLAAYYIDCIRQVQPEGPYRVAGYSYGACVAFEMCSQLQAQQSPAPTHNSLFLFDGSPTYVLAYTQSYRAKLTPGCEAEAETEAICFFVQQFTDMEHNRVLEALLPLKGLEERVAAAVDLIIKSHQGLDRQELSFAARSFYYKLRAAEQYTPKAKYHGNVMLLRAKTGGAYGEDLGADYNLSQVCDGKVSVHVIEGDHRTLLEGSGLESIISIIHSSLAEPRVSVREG

Compound	IC50 [nM]
CCNC(=O)[C@H]1CC[C@@H](N(C)C(=O)c2ccc(-c3ccc(F)cc3F)cc2)C1 [Compound A63, 2′,4′-difluoro-biphenyl-4-carboxylic acid ((1R,3S)-3-ethylcarbamoyl-cyclopentyl)-methyl-amide]	< 300
CCNC(=O)[C@H]1CC[C@@H](N(C)C(=O)c2ccc(-c3ccccc3C(F)(F)F)cc2)C1 [Compound A64, 2′-trifluoromethyl-biphenyl-4-carboxylic acid ((1R,3S)-3-ethylcarbamoyl-cyclopentyl)-methyl-amide]	< 300
CCNC(=O)[C@H]1CC[C@@H](N(C)C(=O)c2ccc(-c3ccccc3C)c(C)c2)C1 [Compound A65, 2,2′-dimethyl-biphenyl-4-carboxylic acid ((1R,3S)-3-ethylcarbamoyl-cyclopentyl)-methyl-amide]	< 300
CN(C(=O)c1ccc(-c2ccccc2)cc1)[C@@H]1CC[C@H](C(=O)NC2(C)CC2)C1 [Compound A67, biphenyl-4-carboxylic acid methyl-[(1R,3S)-3-(1-methyl-cyclopropylcarbamoyl)-cyclopentyl]-amide]	< 300
CN(C(=O)c1ccc(-c2nc3ccccc3o2)cc1)[C@@H]1CC[C@H](C(=O)NC2(C)CC2)C1 [Compound A68, 4-benzoxazol-2-yl-N-methyl-N-[(1R,3S)-3-(1-methyl-cyclopropylcarbamoyl)-cyclopentyl]-benzamide]	< 300
CCNC(=O)[C@H]1CC[C@@H](N(C)C(=O)c2ccc(C#Cc3ccc(OC)cc3)cc2)C1 [Compound A69, N-((1R,3S)-3-ethylcarbamoyl-cyclopentyl)-4-(4-methoxy-phenylethynyl)-N-methyl-benzamide]	< 300
CCNC(=O)[C@H]1CC[C@@H](N(C)C(=O)c2ccc(C#Cc3ccncc3)cc2)C1 [Compound A70, N-((1R,3S)-3-ethylcarbamoyl-cyclopentyl)-N-methyl-4-pyridin-4-ylethynyl-benzamide]	< 300
CN(C(=O)c1ccc(-c2nc3ccccc3s2)cc1)[C@@H]1CC[C@H](C(=O)NC2(C)CC2)C1 [Compound A71, 4-benzothiazol-2-yl-N-methyl-N-[(1R,3S)-3-(1-methyl-cyclopropylcarbamoyl)-cyclopentyl]-benzamide]	< 300
CN(C(=O)c1ccc(C#Cc2ccc(F)cc2)cc1)[C@@H]1CC[C@H](C(=O)NC2(C)CC2)C1 [Compound A72, 4-(4-fluoro-phenylethynyl)-N-methyl-N-[(1R,3S)-3-(1-methyl-cyclopropylcarbamoyl)-cyclopentyl]-benzamide]	< 300
CCCC1(NC(=O)[C@H]2CC[C@@H](N(C)C(=O)c3ccc(-c4nc5ccccc5o4)cc3)C2)CC1 [Compound A73, 4-benzoxazol-2-yl-N-methyl-N-[(1R,3S)-3-(1-propyl-cyclopropylcarbamoyl)-cyclopentyl]-benzamide]	300 to 3000
CC[C@H](C)NC(=O)[C@H]1CC[C@@H](N(C)C(=O)c2ccc(-c3nc4ccccc4o3)cc2)C1 [Compound A74, 4-(1,3-benzoxazol-2-yl)-N-methyl-N-[(1R,3S)-3-[[(1S)-1-methylpropyl]-carbamoyl]cyclopentyl]benzamide]	< 300
CC[C@@H](C)NC(=O)[C@H]1CC[C@@H](N(C)C(=O)c2ccc(-c3nc4ccccc4o3)cc2)C1 [Compound A75, 4-(1,3-benzoxazol-2-yl)-N-methyl-N-[(1R,3S)-3-[[(1R)-1-methylpropyl]-carbamoyl]cyclopentyl]benzamide]	< 300
CN(C(=O)c1ccc(-c2nc3ccccc3o2)cc1)[C@@H]1CC[C@H](C(=O)NC2CCC2)C1 [Compound A76, 4-(1,3-benzoxazol-2-yl)-N-[(1R,3S)-3-(cyclobutylcarbamoyl)cyclopentyl]-N-methyl-benzamide]	< 300
CN(C(=O)c1ccc(-c2nc3ccccc3o2)cc1)[C@@H]1CC[C@H](C(=O)N[C@H]2C[C@H](O)C2)C1 [Compound A77, 4-(1,3-benzoxazol-2-yl)-N-[(1R,3S)-3-[(trans-3-hydroxycyclobutyl)-carbamoyl]cyclopentyl]-N-methyl-benzamide]	< 300
CN(C(=O)c1ccc(-c2nc3ccccc3o2)cc1)[C@@H]1CC[C@H](C(=O)N[C@H]2C[C@@H](O)C2)C1 [Compound A78, 4-(1,3-benzoxazol-2-yl)-N-[(1R,3S)-3-[(cis-3-hydroxycyclobutyl)-carbamoyl]cyclopentyl]-N-methyl-benzamide]	< 300
COc1cc(-c2nc3ccccc3o2)ccc1C(=O)N(C)[C@@H]1CC[C@H](C(=O)NC2(C)CC2)C1 [Compound A79, 4-(1,3-benzoxazol-2-yl)-2-methoxy-N-methyl-N-[(1R,3S)-3-[(1-methylcyclopropyl)carbamoyl]cyclopentyl]benzamide]	300 to 3000
CN(C(=O)c1ccc(-c2ccncc2)cc1)[C@@H]1CC[C@H](C(=O)NC2(C)CC2)C1 [Compound A80, N-methyl-N-[(1R,3S)-3-[(1-methylcyclopropyl)carbamoyl]cyclopentyl]-4-(4-pyridyl)benzamide]	< 300
CN(C(=O)c1ccc(-c2ccc(C#N)cc2)cc1)[C@@H]1CC[C@H](C(=O)NC2(C)CC2)C1 [Compound A81, 4-(4-cyanophenyl)-N-methyl-N-[(1R,3S)-3-[(1-methylcyclopropyl)-carbamoyl]cyclopentyl]benzamide]	< 300
CN(C)C(=O)[C@H]1CC[C@@H](N(C)C(=O)c2ccc(-c3nc4ccccc4o3)cc2)C1 [Compound A82, 4-benzoxazol-2-yl-N-((1R,3S)-3-dimethylcarbamoyl-cyclopentyl)-N-methyl-benzamide]	300 to 3000
CN(C(=O)c1ccc(-c2cccnc2)cc1)[C@@H]1CC[C@H](C(=O)NC2(C)CC2)C1 [Compound A83, N-methyl-N-[(1R,3S)-3-(1-methyl-cyclopropylcarbamoyl)-cyclopentyl]-4-pyridin-3-yl-benzamide]	< 300
CN(C(=O)c1ccc(-c2nc3ccccc3o2)cc1)[C@@H]1CC[C@H](C(=O)NC2(C)CCC2)C1 [Compound A84, 4-benzoxazol-2-yl-N-methyl-N-[(1R,3S)-3-(1-methyl-cyclobutylcarbamoyl)-cyclopentyl]-benzamide]	< 300
COc1cc(C(=O)N(C)[C@@H]2CC[C@H](C(=O)NC3(C)CC3)C2)ccc1-c1nc2ccccc2o1 [Compound A85, 4-benzoxazol-2-yl-3-methoxy-N-methyl-N-[(1R,3S)-3-(1-methyl-cyclopropylcarbamoyl)-cyclopentyl]-benzamide]	< 300
CN(C(=O)c1ccc(-c2nc3ccccc3o2)cc1)[C@@H]1CC[C@H](C(N)=O)C1 [Compound A86, 4-benzoxazol-2-yl-N-((1R,3S)-3-carbamoyl-cyclopentyl)-N-methyl-benzamide]	300 to 3000
CCNC(=O)[C@H]1CC[C@@H](N(C)C(=O)c2ccc(-c3cn4ccc(C#N)cc4n3)cc2)C1 [Compound A87, 4-(7-cyano-imidazo[1,2-a]pyridin-2-yl)-N-((1R,3S)-3-ethylcarbamoyl-cyclopentyl)-N-methyl-benzamide]	300 to 3000
CCNC(=O)[C@H]1CC[C@@H](N(C)C(=O)c2ccc(-c3noc(C)n3)cc2)C1 [Compound A88, N-((1R,3S)-3-ethylcarbamoyl-cyclopentyl)-N-methyl-4-(5-methyl-[1,2,4]oxadiazol-3-yl)-benzamide]	3000 to 50000

From patent US9732032B2, “3-aminocyclopentane carboxamide derivatives” (Merck Patent GmbH, priority 2012, dated 2017)
